Assay results: US20060069132A1, “Azolecarboxamide herbicides” (priority 2004, published 2006)

Legend:
[1] = system: large crabgrass; experiment: Test C pre-/postemergence herbicide test; format: in vivo, Digitaria sanguinalis; conditions: preemergence; for Plant response rating (0 = no effect, 100 = complete control), Crabgrass, Large: 125 g ai/ha
In short: (§1)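 Pre- and postemergence application, solvent/surfactant formulation; post at 1- to 4-leaf stage (2–18 cm). Greenhouse 12–14 d. Visual rating vs controls, 0 = no effect, 100 = complete control.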

[2] = system: woolly cupgrass; experiment: Test C pre-/postemergence herbicide test; format: in vivo, Eriochloa villosa; conditions: preemergence; for Plant response rating (0 = no effect, 100 = complete control), Cupgrass, Woolly: 125 g ai/ha
In short: as §1

[3] = system: lambsquarters; experiment: Test C pre-/postemergence herbicide test; format: in vivo, Chenopodium album; conditions: preemergence; for Plant response rating (0 = no effect, 100 = complete control), Lambsquarters: 125 g ai/ha
In short: as §1

[4] = system: pigweed; experiment: Test C pre-/postemergence herbicide test; format: in vivo, Amaranthus retroflexus; conditions: preemergence; for Plant response rating (0 = no effect, 100 = complete control), Pigweed: 125 g ai/ha
In short: as §1

[5] = system: giant foxtail; experiment: Test C pre-/postemergence herbicide test; format: in vivo, Setaria faberi; conditions: preemergence; for Plant response rating (0 = no effect, 100 = complete control), Foxtail, Giant: 125 g ai/ha
In short: as §1

[6] = system: common (oilseed) sunflower; experiment: Test C pre-/postemergence herbicide test; format: in vivo, Helianthus annuus; conditions: preemergence; for Plant response rating (0 = no effect, 100 = complete control), Sunflower: 125 g ai/ha
In short: as §1

[7] = system: smallflower umbrella sedge; experiment: Test C flooded paddy test; format: in vivo, Cyperus difformis; conditions: for Plant response rating, Sedge, Umbrella: 500 g ai/ha, visual rating after 12 to 14 days
[8] = system: rice; experiment: Test C flooded paddy test; format: in vivo, Oryza sativa; conditions: for Plant response rating, Rice: 500 g ai/ha, visual rating after 12 to 14 days
In short: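 Injury scored visually against controls on a 0 (no effect) to 100 (complete control) scale, 12 to 14 days after treatment in greenhouse. Flooded paddy plants treated at 2-leaf stage; postemergence plants at 1- to 4-leaf stage, 2 to 18 cm tall.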

[9] = 500 g ai/ha, scale 0 to 100 (0 no effect, 100 complete control), visual, 12 to 14 days
[10] = 125 g ai/ha, scale 0 to 100 (0 no effect, 100 complete control)
[11] = 250 g ai/ha, scale of 0 to 100, 0 is no effect, 100 is complete control
[12] = scale 0 to 100 (0 no effect, 100 complete control)

SMILES | Plant response rating, Crabgrass, Large ([1]; 62 g ai/ha, scale 0 to 100) | Plant response rating (0 = no effect, 100 = complete control), Crabgrass, Large [1] | Plant response rating, Crabgrass, Large ([1]; 250 g ai/ha, scale 0-100) | Plant response rating, Crabgrass, Large [1, 9] | Plant response rating, Cupgrass, Woolly ([2]; 62 g ai/ha, scale 0 to 100) | Plant response rating (0 = no effect, 100 = complete control), Cupgrass, Woolly [2] | Plant response rating, Cupgrass, Woolly ([2]; 250 g ai/ha, scale 0-100) | Plant response rating, Cupgrass, Woolly [2, 9] | Plant response rating, Lambsquarters ([3]; 62 g ai/ha, scale 0 to 100) | Plant response rating (0 = no effect, 100 = complete control), Lambsquarters [3] | Plant response rating, Lambsquarters ([3]; 250 g ai/ha, scale 0-100) | Plant response rating, Lambsquarters [3, 9] | Plant response rating, Pigweed ([4]; 62 g ai/ha, scale 0 to 100) | Plant response rating (0 = no effect, 100 = complete control), Pigweed [4] | Plant response rating, Pigweed ([4]; 250 g ai/ha, scale 0-100) | Plant response rating, Pigweed [4, 9] | Plant response rating, Foxtail, Giant ([5]; 62 g ai/ha, scale 0 to 100) | Plant response rating (0 = no effect, 100 = complete control), Foxtail, Giant [5] | Plant response rating, Foxtail, Giant ([5]; 250 g ai/ha, scale 0-100) | Plant response rating, Foxtail, Giant [5, 9] | also measured
CCC1=NN(C(C)(C)C)CC1C(=O)Nc1cc(C(=O)N2CC=CC2)ccc1F (racemic) [Compound 340] | 50 | 70 | 100 | 100 | 0 | 20 | 45 | 75 | 70 | 80 | 100 | 100 | 70 | 85 | 100 | 100 | 0 | 10 | 60 | 85 | Plant response rating, Sunflower ([6]; 62 g ai/ha, scale 0 to 100): 0; Plant response rating (0 = no effect, 100 = complete control), Sunflower [6]: 0; Plant response rating, Sunflower ([6]; 250 g ai/ha, scale 0-100): 0; Plant response rating, Sunflower [6, 9]: 5; Sedge, Umbrella plant response rating ([7]; 62 g ai/ha, scale 0 to 100): 50; Sedge, Umbrella plant response rating [7, 10]: 70; Sedge, Umbrella plant response rating [7, 11]: 70; Plant response rating, Sedge, Umbrella [7, 12]: 90; Rice plant response rating ([8]; 62 g ai/ha, scale 0 to 100): 20; Rice plant response rating [8, 10]: 40; Rice plant response rating [8, 11]: 70; Plant response rating, Rice [8, 12]: 80
CCC1=NN(C(C)(C)C)CC1C(=O)Nc1cc(C(=O)N2CCCC2)ccc1F (racemic) [Compound 341] | 50 | 80 | 90 | 100 | 80 | 80 | 100 | 100 | 100 | 100 | 100 | 100 | 95 | 95 | 100 | 100 | 0 | 50 | 55 | 80 | Plant response rating, Sunflower ([6]; 62 g ai/ha, scale 0 to 100): 0; Plant response rating (0 = no effect, 100 = complete control), Sunflower [6]: 0; Plant response rating, Sunflower ([6]; 250 g ai/ha, scale 0-100): 50; Plant response rating, Sunflower [6, 9]: 100; Sedge, Umbrella plant response rating ([7]; 62 g ai/ha, scale 0 to 100): 20; Sedge, Umbrella plant response rating [7, 10]: 50; Sedge, Umbrella plant response rating [7, 11]: 60; Plant response rating, Sedge, Umbrella [7, 12]: 60; Rice plant response rating ([8]; 62 g ai/ha, scale 0 to 100): 20; Rice plant response rating [8, 10]: 50; Rice plant response rating [8, 11]: 60; Plant response rating, Rice [8, 12]: 70
